{"source": "ChEMBL document CHEMBL5137024", "about": "“Discovery of novel coumarin-indole derivatives as tubulin polymerization inhibitors with potent anti-gastric cancer activities” (Eur J Med Chem, 2022)", "key": {"MCF7": {"test_system": "MCF7", "assay": "Antiproliferative activity against human MCF7 cells assessed as reduction in cell viability incubated for 48 hrs by MTT assay", "type": "functional, cell-based", "conditions": "MCF7, 48 h"}, "HGC-27 [1]": {"test_system": "HGC-27", "assay": "Inhibition of colony formation in human HGC-27 cells incubated for 7 days by crystal violet staining based analysis", "type": "functional, cell-based", "conditions": "dose 3-15 nM, time 7.0 day, DDE = dose-dependent effect"}, "[2]": {"assay": "Induction of mitochondria mediated intrinsic apoptosis in human HGC-27 cells assessed as early apoptotic cells at 20 nM measured after 48 hrs by flow cytometry analysis (Rvb= 6.4%)", "type": "functional"}, "KYSE-450": {"test_system": "KYSE-450", "assay": "Antiproliferative activity against human KYSE-450 cells assessed as reduction in cell viability incubated for 48 hrs by MTT assay", "type": "functional, cell-based", "conditions": "KYSE-450, 48 h"}, "MGC-803 [3]": {"test_system": "MGC-803", "assay": "Inhibition of p38 signalling pathway in human MGC-803 cells assessed as reduction in p38 phosphorylation at 5 to 15 nM incubated for 48 hrs", "type": "cell-based", "conditions": "dose 5-15 nM"}, "HGC-27 [4]": {"test_system": "HGC-27", "assay": "Induction of DNA damage in human HGC-27 cells by comet assay", "type": "functional, cell-based", "conditions": "dose 10-30 nM, DDE = dose-dependent effect"}, "Mus musculus": {"test_system": "Mus musculus", "assay": "Upregulation of PARP expression in tumor tissue of BALB/c nude mouse xenografted with human MGC-803 cells at 15 to 30 mg/kg, ip administered once daily for 21 days by Western blotting analysis", "type": "functional, organism-based", "conditions": "dose 15-30 mg/kg, time 21.0 day"}, "HGC-27 [5]": {"test_system": "HGC-27", "assay": "Induction of apoptosis in human HGC-27 cells assessed as decrease in XIAP level", "type": "functional, cell-based", "conditions": "dose 10-30 nM, DDE = dose-dependent effect"}, "HGC-27 [6]": {"test_system": "HGC-27", "assay": "Induction of apoptosis in human HGC-27 cells assessed as upregulation of DR5 level", "type": "functional, cell-based", "conditions": "dose 10-30 nM, DDE = dose-dependent effect"}, "MGC-803 [7]": {"test_system": "MGC-803", "assay": "Downregulation of MMP-9 expression in human MGC-803 cells incubated for 48 hrs", "type": "functional, cell-based", "conditions": "dose 5-15 nM, DDE = dose-dependent effect"}, "MDA-MB-231": {"test_system": "MDA-MB-231", "assay": "Antiproliferative activity against human MDA-MB-231 cells assessed as reduction in cell viability incubated for 48 hrs by MTT assay", "type": "functional, cell-based", "conditions": "MDA-MB-231, 48 h"}, "HGC-27 [8]": {"test_system": "HGC-27", "assay": "Inhibition of ERK signalling pathway in human HGC-27 cells assessed as downregulation of ERK1/2 phosphorylation at 10 to 30 nM incubated for 48 hrs", "type": "cell-based", "conditions": "dose 10-30 nM"}, "[9]": {"assay": "Induction of mitochondria mediated intrinsic apoptosis in human HGC-27 cells assessed as early apoptotic cells at 30 nM measured after 48 hrs by flow cytometry analysis (Rvb= 6.4%)", "type": "functional"}, "MGC-803 [10]": {"test_system": "MGC-803", "assay": "Antiproliferative activity against human MGC-803 cells assessed as reduction in cell viability at 15 to 30 nM by MTT assay", "type": "functional, cell-based", "conditions": "dose 15-30 nM, time 12-48 hrs, TDE = time-dependent effect"}, "HGC-27 [11]": {"test_system": "HGC-27", "assay": "Inhibition of ERK signalling pathway in human HGC-27 cells assessed as reduction in downstream substrate MSK1 phosphorylation at 10 to 30 nM incubated for 48 hrs", "type": "cell-based", "conditions": "dose 10-30 nM"}, "MGC-803 [12]": {"test_system": "MGC-803", "assay": "Antiproliferative activity against human MGC-803 cells assessed as reduction in cell viability incubated for 12 to 48 hrs by MTT assay", "type": "functional, cell-based", "conditions": "dose 15-30 nM, time 12-48 hrs, DDE = dose-dependent effect"}, "HGC-27 [13]": {"test_system": "HGC-27", "assay": "Downregulation of c-Myc expression in human HGC-27 cells incubated for 48 hrs", "type": "functional, cell-based", "conditions": "dose 10-30 nM, DDE = dose-dependent effect"}, "HGC-27 [14]": {"test_system": "HGC-27", "assay": "Downregulation of MMP-9 expression in human HGC-27 cells incubated for 48 hrs", "type": "functional, cell-based", "conditions": "dose 10-30 nM, DDE = dose-dependent effect"}, "HGC-27 [15]": {"test_system": "HGC-27", "assay": "Induction of apoptosis in human HGC-27 cells assessed as decrease in Mcl-1 level", "type": "functional, cell-based", "conditions": "dose 10-30 nM, DDE = dose-dependent effect"}, "[16]": {"assay": "Induction of mitochondria mediated intrinsic apoptosis in human HGC-27 cells assessed as late apoptotic cells at 30 nM measured after 48 hrs by flow cytometry analysis (reference value: 93.6%)", "type": "functional"}, "[17]": {"target": "Tubulin beta (Homo sapiens) (UniProt P68371+Q9H4B7+Q13509+P04350+Q3ZCM7+P07437+Q13885+Q9BVA1+Q9BUF5+A6NNZ2)", "assay": "Binding affinity to beta-tubulin colchicine binding site in human HGC-27 cells assessed as decrease in beta-tubulin adduct band incubated for 2 hrs by EBI alkylate competition assay", "type": "cell-based", "conditions": "dose 0.075-0.75 µM, DDE = dose-dependent effect"}, "HGC-27 [18]": {"test_system": "HGC-27", "assay": "Antiproliferative activity against human HGC-27 cells assessed as reduction in cell viability at 15 to 30 nM by MTT assay", "type": "functional, cell-based", "conditions": "dose 15-30 nM, time 12-48 hrs, TDE = time-dependent effect"}, "MGC-803 [19]": {"test_system": "MGC-803", "assay": "Inhibition of cell migration in human MGC-803 cells assessed as reduction in wound healing rate at 5 to 15 nM incubated for 24 hrs", "type": "functional, cell-based", "conditions": "dose 5-15 nM"}, "Tubulin (Homo sapiens) [20]": {"target": "T1, Tubulin (Homo sapiens) (UniProt P68371+Q9H4B7+P0DPH7+P68366+Q13509+Q71U36+P04350+Q3ZCM7+P07437+P68363+Q9BQE3+Q6PEY2+Q13885+Q9BVA1+Q9BUF5)", "assay": "Disruption of microtubule network in human HGC-27 cells assessed as irregular form of filamentous microtubule structures at 10 to 30 nM measured after 48 hrs by DAPI staining based fluorescence microscopic analysis", "type": "cell-based", "conditions": "dose 10-30 nM"}, "MGC-803 [21]": {"test_system": "MGC-803", "assay": "Downregulation of ATF4 expression in human MGC-803 cells incubated for 48 hrs", "type": "functional, cell-based", "conditions": "dose 5-15 nM, DDE = dose-dependent effect"}, "MGC-803 [22]": {"test_system": "MGC-803", "assay": "Induction of apoptosis in human MGC-803 cells assessed as increase in total apoptotic cells at 15 nM incubated for 48 hrs by annexin V FITC and propidium iodide staining based flow cytometry analysis (reference value: 3.4%)", "type": "functional"}, "HGC-27 [23]": {"test_system": "HGC-27", "assay": "Antiproliferative activity against human HGC-27 cells assessed as inhibition of cell growth at 10 to 30 nM incubated for 60 hrs", "type": "functional, cell-based", "conditions": "dose 10-30 nM"}, "Tubulin (Homo sapiens) [24]": {"target": "T1, Tubulin (Homo sapiens)", "assay": "Disruption of microtubule network in human HGC-27 cells assessed as incomplete mitosis at 10 to 30 nM measured after 48 hrs by DAPI staining based fluorescence microscopic analysis", "type": "cell-based", "conditions": "dose 10-30 nM"}, "HCT-116": {"test_system": "HCT-116", "assay": "cells", "conditions": "Homo sapiens, HCT-116, 48 h"}, "MGC-803 [25]": {"test_system": "MGC-803", "assay": "Induction of apoptosis in human MGC-803 cells assessed as decrease in XIAP level", "type": "functional, cell-based", "conditions": "dose 5-15 nM, DDE = dose-dependent effect"}, "HGC-27 [26]": {"test_system": "HGC-27", "assay": "Induction of apoptosis in human HGC-27 cells assessed as upregulation of cleavage caspase 8 level", "type": "functional, cell-based", "conditions": "dose 10-30 nM, DDE = dose-dependent effect"}, "HGC-27 [27]": {"test_system": "HGC-27", "assay": "Inhibition of p38 signalling pathway in human HGC-27 cells assessed as reduction in downstream substrate MAPKAPK2 phosphorylation at 10 to 30 nM incubated for 48 hrs", "type": "cell-based", "conditions": "dose 10-30 nM"}, "ECa-109 cell line": {"test_system": "ECa-109 cell line", "assay": "Antiproliferative activity against human EC109 cells assessed as reduction in cell viability incubated for 48 hrs by MTT assay", "type": "functional, cell-based", "conditions": "ECa-109, 48 h"}, "HGC-27 [28]": {"test_system": "HGC-27", "assay": "Induction of apoptosis in human HGC-27 cells assessed as decrease in cell density at 10 to 30 nM incubated for 48 hrs by bright field imaging analysis", "type": "functional, cell-based", "conditions": "dose 10-30 nM"}, "MGC-803 [29]": {"test_system": "MGC-803", "assay": "Downregulation of phosphorylated Elk-1 expression in human MGC-803 cells incubated for 48 hrs", "type": "functional, cell-based", "conditions": "dose 5-15 nM, DDE = dose-dependent effect"}, "MGC-803 [30]": {"test_system": "MGC-803", "assay": "Induction of apoptosis in human MGC-803 cells assessed as increase in Noxa level", "type": "functional, cell-based", "conditions": "dose 5-15 nM, DDE = dose-dependent effect"}}, "note": "The source made the active and inactive calls. No cut-off for these calls is given here."}
{"smiles": "CN(c1ccc2c(ccn2C)c1)c1cc(=O)oc2ccccc12", "values": [{"measurement": "IC50", "setting": "MCF7", "value": 435, "unit": "nM"}, {"measurement": "inhibition", "setting": "HGC-27 [1]", "value": "Dde"}, {"measurement": "Activity", "setting": "[2]", "value": 21.6, "unit": "%"}, {"measurement": "IC50", "setting": "KYSE-450", "value": 21, "unit": "nM"}, {"measurement": "inhibition", "setting": "MGC-803 [3]", "value": "Active"}, {"measurement": "Activity", "setting": "HGC-27 [4]", "value": "Dde"}, {"measurement": "Activity", "setting": "Mus musculus", "value": "Active"}, {"measurement": "Activity", "setting": "HGC-27 [5]", "value": "Dde"}, {"measurement": "Activity", "setting": "HGC-27 [6]", "value": "Dde"}, {"measurement": "Activity", "setting": "MGC-803 [7]", "value": "Dde"}, {"measurement": "IC50", "setting": "MDA-MB-231", "value": 79.3, "unit": "nM"}, {"measurement": "inhibition", "setting": "HGC-27 [8]", "value": "Active"}, {"measurement": "Activity", "setting": "[9]", "value": 25.5, "unit": "%"}, {"measurement": "Activity", "setting": "MGC-803 [10]", "value": "Tde"}, {"measurement": "inhibition", "setting": "HGC-27 [11]", "value": "Active"}, {"measurement": "Activity", "setting": "MGC-803 [12]", "value": "Dde"}, {"measurement": "Activity", "setting": "HGC-27 [13]", "value": "Dde"}, {"measurement": "Activity", "setting": "HGC-27 [14]", "value": "Dde"}, {"measurement": "Activity", "setting": "HGC-27 [15]", "value": "Dde"}, {"measurement": "Activity", "setting": "[16]", "value": 74.4, "unit": "%"}, {"measurement": "Activity", "setting": "[17]", "value": "Dde"}, {"measurement": "Activity", "setting": "HGC-27 [18]", "value": "Tde"}, {"measurement": "inhibition", "setting": "MGC-803 [19]", "value": "Active"}, {"measurement": "Activity", "setting": "Tubulin (Homo sapiens) [20]", "value": "Active"}, {"measurement": "Activity", "setting": "MGC-803 [21]", "value": "Dde"}, {"measurement": "Activity", "setting": "MGC-803 [22]", "value": 40.2, "unit": "%"}, {"measurement": "inhibition", "setting": "HGC-27 [23]", "value": "Active"}, {"measurement": "Activity", "setting": "Tubulin (Homo sapiens) [24]", "value": "Active"}, {"measurement": "IC50", "setting": "HCT-116", "value": 33, "unit": "nM"}, {"measurement": "Activity", "setting": "MGC-803 [25]", "value": "Dde"}, {"measurement": "Activity", "setting": "HGC-27 [26]", "value": "Dde"}, {"measurement": "inhibition", "setting": "HGC-27 [27]", "value": "Active"}, {"measurement": "IC50", "setting": "ECa-109 cell line", "value": 33.8, "unit": "nM"}, {"measurement": "Activity", "setting": "HGC-27 [28]", "value": "Active"}, {"measurement": "Activity", "setting": "MGC-803 [29]", "value": "Dde"}, {"measurement": "Activity", "setting": "MGC-803 [30]", "value": "Dde"}]}
